For one compound, IC50 results are on record in ChEMBL document CHEMBL5316324, “Discovery, Characterization, and Engineering of LvIC, an α4/4-Conotoxin That Selectively Blocks Rat α6/α3β4 Nicotinic Acetylcholine Receptors” (J Med Chem, 2023).

Test [1] deals with Nicotinic acetylcholine receptor alpha6/alpha3/beta4 (Rattus norvegicus, UniProt P04757+P12392+P43143). Description: Inhibition of rat alpha6/alpha3beta4 nAChR expressed in Stage V-VI Xenopus laevis Oocytes assessed as inhibition of acetylcholine-induced current in presence of acetylcholine by electrophysiological recording. It counts as cell-based, Oocyte.
The target in test [2] is Neuronal acetylcholine receptor subunit alpha-7 (Rattus norvegicus, UniProt Q05941). Description: Inhibition of rat alpha7 nAChR expressed in Stage V-VI Xenopus laevis Oocytes assessed as inhibition of acetylcholine-induced current in presence of acetylcholine by electrophysiological recording. It counts as cell-based, Oocyte.

Peptide text beside a SMILES is read from it.

Sequence of Nicotinic acetylcholine receptor alpha6/alpha3/beta4 (P04757 whole entry): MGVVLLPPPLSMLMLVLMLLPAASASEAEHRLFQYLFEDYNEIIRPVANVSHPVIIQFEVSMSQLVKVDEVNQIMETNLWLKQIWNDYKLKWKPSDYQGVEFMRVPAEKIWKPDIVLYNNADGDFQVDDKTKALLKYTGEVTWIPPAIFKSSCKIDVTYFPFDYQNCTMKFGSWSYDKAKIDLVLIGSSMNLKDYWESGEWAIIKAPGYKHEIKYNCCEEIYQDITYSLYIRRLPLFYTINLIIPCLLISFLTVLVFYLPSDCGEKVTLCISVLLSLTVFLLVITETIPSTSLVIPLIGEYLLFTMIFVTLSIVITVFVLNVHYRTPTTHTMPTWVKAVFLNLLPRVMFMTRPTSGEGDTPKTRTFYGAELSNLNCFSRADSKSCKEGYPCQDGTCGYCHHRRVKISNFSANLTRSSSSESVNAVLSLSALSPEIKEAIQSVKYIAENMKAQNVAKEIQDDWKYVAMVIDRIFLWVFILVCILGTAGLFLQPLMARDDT
Sequence of Nicotinic acetylcholine receptor alpha6/alpha3/beta4 (P12392 whole entry): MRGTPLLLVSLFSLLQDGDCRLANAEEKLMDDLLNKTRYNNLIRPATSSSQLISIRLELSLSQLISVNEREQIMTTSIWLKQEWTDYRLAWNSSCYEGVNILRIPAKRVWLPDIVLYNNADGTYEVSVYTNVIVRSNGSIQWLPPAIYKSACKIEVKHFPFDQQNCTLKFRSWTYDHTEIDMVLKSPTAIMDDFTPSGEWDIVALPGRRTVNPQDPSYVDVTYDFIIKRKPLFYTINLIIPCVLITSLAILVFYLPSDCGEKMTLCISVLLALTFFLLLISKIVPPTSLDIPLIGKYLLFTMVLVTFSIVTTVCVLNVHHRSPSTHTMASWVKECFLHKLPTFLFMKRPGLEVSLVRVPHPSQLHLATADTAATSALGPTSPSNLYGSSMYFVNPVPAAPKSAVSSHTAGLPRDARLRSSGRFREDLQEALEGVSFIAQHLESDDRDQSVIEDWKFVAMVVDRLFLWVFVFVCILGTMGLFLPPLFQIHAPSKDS
Sequence of Nicotinic acetylcholine receptor alpha6/alpha3/beta4 (P43143 whole entry): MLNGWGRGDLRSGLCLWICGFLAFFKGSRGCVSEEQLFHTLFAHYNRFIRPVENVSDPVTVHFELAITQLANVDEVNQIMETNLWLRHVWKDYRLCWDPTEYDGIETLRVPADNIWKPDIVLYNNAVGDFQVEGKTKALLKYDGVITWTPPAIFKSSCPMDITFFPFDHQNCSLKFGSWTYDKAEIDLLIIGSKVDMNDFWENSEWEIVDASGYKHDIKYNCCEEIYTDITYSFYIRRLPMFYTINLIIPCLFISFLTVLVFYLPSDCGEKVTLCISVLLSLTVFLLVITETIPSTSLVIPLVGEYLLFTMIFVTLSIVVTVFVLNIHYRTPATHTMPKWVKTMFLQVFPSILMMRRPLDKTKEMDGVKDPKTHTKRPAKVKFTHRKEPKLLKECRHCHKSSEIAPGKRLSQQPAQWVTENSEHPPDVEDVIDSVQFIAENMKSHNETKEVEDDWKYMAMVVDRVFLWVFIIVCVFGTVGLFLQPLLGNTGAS
Sequence of Neuronal acetylcholine receptor subunit alpha-7 (Q05941 whole entry): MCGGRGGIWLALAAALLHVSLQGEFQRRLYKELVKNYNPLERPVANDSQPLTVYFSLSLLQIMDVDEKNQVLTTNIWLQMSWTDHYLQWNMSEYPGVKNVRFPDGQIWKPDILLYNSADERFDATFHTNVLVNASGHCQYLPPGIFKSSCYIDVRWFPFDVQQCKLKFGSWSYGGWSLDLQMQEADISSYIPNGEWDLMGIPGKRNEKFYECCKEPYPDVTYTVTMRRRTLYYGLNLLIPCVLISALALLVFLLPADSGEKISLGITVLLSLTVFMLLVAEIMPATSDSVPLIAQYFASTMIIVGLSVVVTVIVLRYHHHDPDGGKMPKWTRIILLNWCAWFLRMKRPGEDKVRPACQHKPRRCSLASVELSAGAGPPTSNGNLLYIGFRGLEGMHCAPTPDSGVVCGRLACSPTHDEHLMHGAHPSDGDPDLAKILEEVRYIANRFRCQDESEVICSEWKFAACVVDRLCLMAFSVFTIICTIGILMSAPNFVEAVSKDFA

`CC(C)[C@H](NC(=O)[C@@H]1CCCN1C(=O)[C@H](CC(N)=O)NC(=O)[C@H](C)NC(=O)[C@H](CS)NC(=O)[C@H](CS)NC(=O)[C@@H](N)CCCNC(=N)N)C(=O)N[C@@H](CS)C(=O)N[C@@H](CC(N)=O)C(=O)NCC(=O)N[C@@H](CCCCN)C(=O)N[C@@H](Cc1cnc[nH]1)C(=O)N[C@@H](CS)C(N)=O` (H-RCCANPVCNGKHC-NH2): the IC50 was 19 nM in test [1] and above 10 µM in test [2].
